Like-named read-outs stand apart in the source and are kept apart here.
Key:
[1] = tested on: human osteosarcoma cell line (U-2 OS); test: Cell cycle events by flow cytometry and timelapse, cyclin B1-GFP reporter; type: cell-based; details: U2-OS
Experimental: The U2 OS cells were stably transfected with a Green Fluorescent Protein tagged Cyclin B1 reporter and maintained at 37° C. and 5% CO2 in McCoys 5A modified medium (Sigma) supplemented with 2 mM glutamine, 100 units/ml penicillin, 100 μg/ml streptomycin, 10% fetal calf serum and 1000 μg/ml geneticin. Appropriate dilutions were added to the wells to obtain treatment regimes of 0, 10 and 100 nM of the experimental compound.
The cells were plated in a 6 well plate (density ˜15-20%). Each experiment consisted of the paired drug treatment at the appropriate dose added to the cells and the plate was placed on a stage of an inverted microscope in a sealed environment (37° C./humidified 5% CO2), and the entire apparatus was situated on a vibration-free table. Three fields were selected per well to triplicate the sampling for each experiment. Images at 10× magnification and were taken every 15 minutes over 3 days using a Cohu cooled CCD camera and the programme AQM Advance 6 to store the images. The images were viewed using the Metamorph programme.
Experimental data derived from the timelapse were analyzed by comparing the morphology of the cells and the relative growth rates per treatment regimen. This was achieved by counting the number of live cells per field every 12 hours (since a normal cell has a generation time of 24 hours) and plotting the data into relative growth curves. The initial rate of growth (between time points 0-12 and 12-24) was then calculated.
Samples by flow cytometry. U-2 OS cells were treated with the compound in a 6 well plate in an incubator over 2 days. Cells were then extracted from the plate, and Draq5 added to stain the DNA before they were analyzed using a Becton Dickinson FACS Vantage flow cytometer. The flow data was gated for intact cells, and the DRAQ5 levels (indicator of DNA content) were extracted.
DNA content and Cyclin B1 expression were measured using flow cytometry and a p53 functional human osteosarcoma cell line (U2-OS) as described above.

[2] = tested on: doxorubicin-resistant and cisplatin-resistant tumor cell lines; details: cited from earlier work
[3] = tested on: A2780 human ovarian carcinoma cell line; details: cited from earlier work
[4] = tested on: NCI-H460; test: NCI human cell line panel cytotoxicity; type: cell-based; details: NSCLC
Experimental: (§1) To identify the activity of the compound of formula IV in additional cell lines, an NCI human cell line panel was screened for sensitivity to the compound. Cytotoxicity was evaluated for chloroethylaminoanthraquinone compounds synthesized as described in EXAMPLE 1, using an in vitro cell based assay as described in Pors et al., Mol. Cancer Ther., 2:607-610 (2003).
(§2) Human tumor cell lines from the NCI human cell line panel (Table 2) were tested in the assay.
(§3) Growth inhibition was determined, and was expressed as the concentration (nM) required to inhibit cell growth by 50% (IG50). […] In particular, excellent activity was observed against CNS, colon, NSCLC and renal cancer cell lines. […] Standard methods were used for MTT results (Monks A et. al., J. Natl Cancer Inst. 1991 June 5;83(11):757-66).

[5] = tested on: BT549; test: NCI human cell line panel cytotoxicity; type: cell-based; details: BT-549, Breast
Experimental: as §1, §2, §3

[6] = tested on: RPMI 8226; test: NCI human cell line panel cytotoxicity; type: cell-based; details: Leuk
Experimental: as §1, §2, §3

[7] = tested on: TK10; test: NCI human cell line panel cytotoxicity; type: cell-based; details: TK-10, Renal
Experimental: as §1, §2, §3

[8] = tested on: U251; test: NCI human cell line panel cytotoxicity; type: cell-based; details: U-251, CNS
Experimental: as §1, §2, §3

[9] = tested on: SF 539; test: NCI human cell line panel cytotoxicity; type: cell-based; details: CNS
Experimental: as §1, §2, §3

[10] = tested on: EKVX; test: NCI human cell line panel cytotoxicity; type: cell-based; details: NSCLC
Experimental: as §1, §2, §3

[11] = tested on: HCT-116; test: NCI human cell line panel cytotoxicity; type: cell-based; details: Colon
Experimental: as §1, §2, §3

[12] = tested on: A549/ATCC; test: NCI human cell line panel cytotoxicity; type: cell-based; details: NSCLC
Experimental: as §1, §2, §3

[13] = tested on: ACHN; test: NCI human cell line panel cytotoxicity; type: cell-based; details: Renal
Experimental: as §1, §2, §3

[14] = tested on: HT-29; test: NCI human cell line panel cytotoxicity; type: cell-based; details: Colon
Experimental: as §1, §2, §3

[15] = tested on: SK MEL 5; test: NCI human cell line panel cytotoxicity; type: cell-based; details: Melanoma
Experimental: as §1, §2, §3

[16] = tested on: HS 578T; test: NCI human cell line panel cytotoxicity; type: cell-based; details: Breast
Experimental: as §1, §2, §3

[17] = tested on: MCF7; test: NCI human cell line panel cytotoxicity; type: cell-based; details: Breast
Experimental: as §1, §2, §3

[18] = tested on: NCI-H322M; test: NCI human cell line panel cytotoxicity; type: cell-based; details: NSCLC
Experimental: as §1, §2, §3

[19] = tested on: HCT-15; test: NCI human cell line panel cytotoxicity; type: cell-based; details: Colon
Experimental: as §1, §2, §3

[20] = tested on: MDA-MB-435; test: NCI human cell line panel cytotoxicity; type: cell-based; details: Breast
Experimental: as §1, §2, §3

[21] = tested on: DU145; test: NCI human cell line panel cytotoxicity; type: cell-based; details: DU-145, Prostate
Experimental: as §1, §2, §3

[22] = tested on: SF 268; test: NCI human cell line panel cytotoxicity; type: cell-based; details: CNS
Experimental: as §1, §2, §3

[23] = tested on: PC3; test: NCI human cell line panel cytotoxicity; type: cell-based; details: PC-3, Prostate
Experimental: as §1, §2, §3

[24] = tested on: SN12C; test: NCI human cell line panel cytotoxicity; type: cell-based; details: Renal
Experimental: as §1, §2, §3

[25] = tested on: 786-0; test: NCI human cell line panel cytotoxicity; type: cell-based; details: Renal
Experimental: as §1, §2, §3

[26] = tested on: MDA-MB-231/ATCC; test: NCI human cell line panel cytotoxicity; type: cell-based; details: Breast
Experimental: as §1, §2, §3

[27] = tested on: NCI-H226; test: NCI human cell line panel cytotoxicity; type: cell-based; details: NSCLC
Experimental: as §1, §2, §3

[28] = tested on: UACC-62; test: NCI human cell line panel cytotoxicity; type: cell-based; details: Melanoma
Experimental: as §1, §2, §3

[29] = tested on: KM 12; test: NCI human cell line panel cytotoxicity; type: cell-based; details: KM12, Colon
Experimental: as §1, §2, §3

[30] = tested on: LOX IMVI; test: NCI human cell line panel cytotoxicity; type: cell-based; details: Melanoma
Experimental: as §1, §2, §3

[31] = tested on: UACC-257; test: NCI human cell line panel cytotoxicity; type: cell-based; details: Melanoma
Experimental: as §1, §2, §3

[32] = tested on: NCI human cell lines; test: NCI human cell line panel, mean over cell lines; type: cell-based; details: mean against the NCI human cell lines (28 tested)
Experimental: as §1, §2, §3

Structure (SMILES): CN(C)CCNc1ccc(NCCN(CCCl)CCCl)c2c1C(=O)c1c(O)ccc(O)c1C2=O [Compound IV]
- G2 arrest [1]: limited expression of G2 arrest
- polyploidy on escape from G2 arrest (B1 cyclin tracking) [1]: forced some cells to enter polyploidy via an aberrant mitosis
- pan-cell cycle progression and mitotic commitment ([1]; compared to untreated cells): slowed pan-cell cycle progression and mitotic commitment
- induction of apoptosis ([1]; immediate (<24 h)): without any immediate (<24 h) induction of apoptosis
- cellular drug resistance ([2]; Pors et al., 2003): very low resistance
- cytotoxicity against resistant cell lines ([2]; doxorubicin-resistant and cisplatin-resistant tumor cell lines, in vitro): maintained potent cytotoxicity
- resistance relative to doxorubicin ([2]; fold less resistant, Pors et al., 2003): 250 fold
- resistance relative to the other chloroethylaminoanthraquinones tested ([2]; fold less, Pors et al., 2003): 20-150 fold
- cytotoxicity [3]: potent cytotoxicity
- IC50 ([4]; read-out: IC50 nM): < 10 nM
- IC50 ([4]; read-out: IC50): < 10 nM
- IC50 ([4]; read-out: Log IC50 (converted)): ≤ 10 nM
- IC50 ([5]; read-out: IC50 nM): 2040 nM
- IC50 ([5]; read-out: IC50): 2040 nM
- IC50 ([5]; read-out: Log IC50 (converted)): 2040 nM
- IC50 ([6]; read-out: IC50 nM): < 10 nM
- IC50 ([6]; read-out: IC50): < 10 nM
- IC50 ([6]; read-out: Log IC50 (converted)): ≤ 10 nM
- IC50 ([7]; read-out: IC50 nM): 407 nM
- IC50 ([7]; read-out: IC50): 407 nM
- IC50 ([7]; read-out: Log IC50 (converted)): 407 nM
- IC50 ([8]; read-out: IC50 nM): 19 nM
- IC50 ([8]; read-out: IC50): 19.1 nM
- IC50 ([8]; read-out: Log IC50 (converted)): 19.1 nM
- IC50 ([9]; read-out: IC50 nM): < 10 nM
- IC50 ([9]; read-out: IC50): < 10 nM
- IC50 ([9]; read-out: Log IC50 (converted)): ≤ 10 nM
- IC50 ([10]; read-out: IC50 nM): 759 nM
- IC50 ([10]; read-out: IC50): 759 nM
- IC50 ([10]; read-out: Log IC50 (converted)): 759 nM
- IC50 ([11]; read-out: IC50 nM): < 10 nM
- IC50 ([11]; read-out: IC50): < 10 nM
- IC50 ([11]; read-out: Log IC50 (converted)): ≤ 10 nM
- IC50 ([12]; read-out: IC50 nM): 27 nM
- IC50 ([12]; read-out: IC50): 26.9 nM
- IC50 ([12]; read-out: Log IC50 (converted)): 26.9 nM
- IC50 ([13]; read-out: IC50 nM): < 10 nM
- IC50 ([13]; read-out: IC50): < 10 nM
- IC50 ([13]; read-out: Log IC50 (converted)): ≤ 10 nM
- IC50 ([14]; read-out: IC50 nM): < 10 nM
- IC50 ([14]; read-out: IC50): < 10 nM
- IC50 ([14]; read-out: Log IC50 (converted)): ≤ 10 nM
- IC50 ([15]; read-out: IC50 nM): 71 nM
- IC50 ([15]; read-out: IC50): 70.8 nM
- IC50 ([15]; read-out: Log IC50 (converted)): 70.8 nM
- IC50 ([16]; read-out: IC50 nM): 525 nM
- IC50 ([16]; read-out: IC50): 525 nM
- IC50 ([16]; read-out: Log IC50 (converted)): 525 nM
- IC50 ([17]; read-out: IC50 nM): < 10 nM
- IC50 ([17]; read-out: IC50): < 10 nM
- IC50 ([17]; read-out: Log IC50 (converted)): ≤ 10 nM
- IC50 ([18]; read-out: IC50 nM): 295 nM
- IC50 ([18]; read-out: IC50): 295 nM
- IC50 ([18]; read-out: Log IC50 (converted)): 295 nM
- IC50 ([19]; read-out: IC50 nM): < 10 nM
- IC50 ([19]; read-out: IC50): < 10 nM
- IC50 ([19]; read-out: Log IC50 (converted)): ≤ 10 nM
- IC50 ([20]; read-out: IC50 nM): 21 nM
- IC50 ([20]; read-out: IC50): 20.9 nM
- IC50 ([20]; read-out: Log IC50 (converted)): 20.9 nM
- IC50 ([21]; read-out: IC50 nM): 50 nM
- IC50 ([21]; read-out: IC50): 50.1 nM
- IC50 ([21]; read-out: Log IC50 (converted)): 50.1 nM
- IC50 ([22]; read-out: IC50 nM): < 10 nM
- IC50 ([22]; read-out: IC50): < 10 nM
- IC50 ([22]; read-out: Log IC50 (converted)): ≤ 10 nM
- IC50 ([23]; read-out: IC50 nM): 50 nM
- IC50 ([23]; read-out: IC50): 50.1 nM
- IC50 ([23]; read-out: Log IC50 (converted)): 50.1 nM
- IC50 ([24]; read-out: IC50 nM): 27 nM
- IC50 ([24]; read-out: IC50): 26.9 nM
- IC50 ([24]; read-out: Log IC50 (converted)): 26.9 nM
- IC50 ([25]; read-out: IC50 nM): < 10 nM
- IC50 ([25]; read-out: IC50): < 10 nM
- IC50 ([25]; read-out: Log IC50 (converted)): ≤ 10 nM
- IC50 ([26]; read-out: IC50 nM): 100 nM
- IC50 ([26]; read-out: IC50): 100 nM
- IC50 ([26]; read-out: Log IC50 (converted)): 100 nM
- IC50 ([27]; read-out: IC50 nM): 54 nM
- IC50 ([27]; read-out: IC50): 53.7 nM
- IC50 ([27]; read-out: Log IC50 (converted)): 53.7 nM
- IC50 ([28]; read-out: IC50 nM): 219 nM
- IC50 ([28]; read-out: IC50): 219 nM
- IC50 ([28]; read-out: Log IC50 (converted)): 219 nM
- IC50 ([29]; read-out: IC50 nM): 138 nM
- IC50 ([29]; read-out: IC50): 138 nM
- IC50 ([29]; read-out: Log IC50 (converted)): 138 nM
- IC50 ([30]; read-out: IC50 nM): < 10 nM
- IC50 ([30]; read-out: IC50): < 10 nM
- IC50 ([30]; read-out: Log IC50 (converted)): ≤ 10 nM
- IC50 ([31]; read-out: IC50 nM): 1860 nM
- IC50 ([31]; read-out: IC50): 1860 nM
- IC50 ([31]; read-out: Log IC50 (converted)): 1860 nM
- IC50 [32]: 49 nM
